The values below come from patent publication US20150223465A1, “COMPOSITION CONTAINING 3-CYCLOPROPYL-1-ENYL-PROPANOIC ACID SALTS AND A CARRIER” (Yissum Research Development Company of the Hebrew …, priority 2012, published 2015).

Molecules are shown by their SMILES.

In one test the test system is cut carnation flowers. Put plainly: Delaying senescence of cut carnation flowers: loading 24 h in CPAS solution, then 2 ppm ethylene for 24 h, visual inspection/photographs. It is filed as in vivo, carnation (Dianthus caryophyllus). On the set-up: key to Results (ethylene antagonizing effect of CPAS by visual inspection): The result “−” means no ethylene antagonizing effect by visual inspection.; The result “+++” means high ethylene antagonizing effect by visual inspection.; The result “++++” means very high ethylene antagonizing effect by visual inspection. The source says:
The ethylene antagonizing effect of composition described herein can be assessed by its effect of delaying senescence of cut plants, such as cut flowers. Some embodiments of the present invention are based on the use of the composition described herein to treat cut flowers for delaying senescence of the cut flowers.
Cut Flowers: Unless otherwise noted, carnation flowers grown in a greenhouse were harvested at the beginning of flower opening stage, early in the morning, and were immediately brought to the laboratory. The flowers were either processed immediately or stored in a cold room (4° C.) for 1 to 5 days as required.
Treatment Procedure: The flower stems were cut under tap water to the desired lengths (15 cm-55 cm). Four flowers for each treatment group (of two flowers per each groups) were loaded in a 20 mL aqueous treatment solution (or “loading solution”) for 24 hours. The treatment solution was placed in a 35 mL tube. The loading solutions of CPAS in buffers were prepared in distilled water, as described hereinafter. At the end of CPAS loading, the flowers were transferred to tap water for 1 to 4 days until the cut flowers open. The cut flowers were then exposed to 2 ppm ethylene for 24 hours. Control cut flowers were loaded in a control solution without CPAS in the same manner as the treated cut flowers, and were thereafter exposed to ethylene or air. At the end of ethylene exposure, the flowers were ventilated and left in tap water under controlled conditions (a temperature of 22° C., a relative humidity of 80%, and continuous fluorescent light) for additional 5 days for senescence assessment.

The next test concerns carnation flowers. Put plainly: Spraying cut carnations with CPAS solution, then 2 ppm ethylene for 24 h. It counts as in vivo, carnation (Dianthus caryophyllus). The procedure:
Carnation flowers were harvested at the full bloom stage, when the outer petals deflected at right angles to the stem. The flowers were selected for uniformity in terms of flower diameter and placed in tap water. […] The deionized water was used to avoid salt precipitation due to the existence of calcium in tap water. The treatment solution contained a surfactant, Triton-X 100™ (0.05%). Twenty-four hours after the spraying application, the flowers were treated with 2 ppm ethylene for 24 hours. During treatment and during observation of vase-life, the flowers were kept at 22° C. Each treatment was carried out in three replicates, 3 flowers in each replicate.
Carnation flowers were harvested at the full bloom stage, when the outer petals deflected at right angles to the stem. The flowers were selected for uniformity in terms of flower diameter and placed in tap water. The flowers were then sprayed with various concentrations of CPAS (sodium salt) ranging from 15 to 60 ppm dissolved in NaHCO3 (pH 8.2, 20 and 40 mM) in tap water. The treatment solution contained a surfactant, Kinetic® (0.05%). Twenty-four hours after the CPAS spraying application, the flowers were treated with 2 ppm ethylene for 24 hours. During treatment and during observation of vase-life, the flowers were kept 22° C. Each treatment was carried out in three replicates, 3 flowers in each replicate.

In the case of `O=C([O-])CCC1=CC1.[Na+]` [CPAS, 3-cyclopropyl-1-enyl-propanoic acid salt], the “senescence of cut flowers” value in the test on cut carnation flowers (36 cm stems, 60 and 120 ppm CPAS in Na-phosphate buffer (20 mM) containing NaHCO3 (60 mM), pH 7.2) was “delayed senescence”; with cut carnation flowers (CPAS sodium salt 20-160 ppm in Glycine/NaOH buffer 20 mM pH 8.8, 36 cm stems, loading 24 h) it was “no effect”; with cut carnation flowers (CPAS sodium salt 20-160 ppm in H3BO3/NaOH buffer 20 mM pH 9.2, 36 cm stems, loading 24 h), “no effect”; with cut carnation flowers (CPAS sodium salt 20-160 ppm in Na2CO3/NaHCO3 buffer 20 mM pH 9.4, 36 cm stems, loading 24 h) it was “showed delayed senescence”; in the test with cut carnation flowers (stem length 15 cm, 40, 60 and 120 ppm CPAS in 20 mM NaHCO3 pH 8.2), “showed delayed senescence”; in the test with cut carnation flowers (stem length 36 cm, 120 mM CPAS (so in the source) in 20 mM NaHCO3 pH 8.2) it was “showed delayed senescence”. Moreover, the “senescence of cut flowers” value was “No delayed senescence” in the test on cut carnation flowers (stem length 55 cm, 120 mM CPAS (so in the source) in 20 mM NaHCO3 pH 8.2); “showed delayed senescence” with cut carnation flowers (stem length 55 cm, 60 or 120 ppm CPAS in 60 mM Na2CO3/NaHCO3 buffer pH 9.4); “showed delayed senescence” in the test with cut carnation flowers (stem length 55 cm, 120 ppm CPAS in 60 mM NaHCO3 pH 8.2). Besides, the flower senescence entry is “delayed flower senescence” in the test on cut carnation flowers (60 or 120 ppm CPAS in 20 mM Na2CO3/NaHCO3 buffer pH 9.4, 36 cm stems) and “delayed flower senescence” with cut carnation flowers (120 ppm CPAS in 20 mM NaHCO3 pH 8.2, 36 cm stems). In addition, the “Results (ethylene antagonizing effect of CPAS by visual inspection)” value was “++++” in the test on cut carnation flowers (CPAS sodium salt 20-120 ppm in Na2CO3/NaHCO3 buffer 20 mM pH 9.2-9.4), “−” with cut carnation flowers (CPAS sodium salt 20-120 ppm in Na-Phosphate buffer 20 mM pH 7.6) and “+++” in the test on cut carnation flowers (CPAS sodium salt 20-120 ppm in NaHCO3 20 mM pH 8.2). Moreover, the “effect on ethylene-induced flower senescence” value is listed as “little effect” with carnation flowers (15 ppm CPAS in NaHCO3 pH 8.2 (20 and 40 mM), Kinetic 0.05%, tap water); “little effect” in the test on carnation flowers (40 ppm CPAS in Na2CO3/NaHCO3 buffer pH 9.2 below 60 mM, Triton-X 100 0.05%, deionized water); “significant effect” with carnation flowers (80 and 120 ppm CPAS in Na2CO3/NaHCO3 buffer pH 9.2, 40 and 60 mM, Triton-X 100 0.05%); “significantly delayed flower senescence” with carnation flowers (higher CPAS concentrations (up to 60 ppm) in NaHCO3 pH 8.2 (20 and 40 mM), Kinetic 0.05%, tap water). The “delay of flower senescence, tap water versus DI water” value in the test with carnation flowers (CPAS in NaHCO3 (40 mM) dissolved in tap water compared with DI water) was “more efficiently”.
